Source: patent US6583149B1, “Method for the treatment or prevention of viral infection using nucleoside analogues” (BioChem Pharma Inc., priority 1999, dated 2003)
Read-outs that look alike come from different tables or passages of the source.

Tests used:
[1] = system: Vero34 cells; type: cell-based; details: African green monkey, 48 h
Method: The CD50 value (cytotoxic dose at 50%) was assessed on virus-free control layers of cells to assess the toxicity of the compounds.
Flat bottom 96 well plates were plated with 5×1OE3 Vero-34 cells/well and 1×10E4 Hs-68 or Wi-38 cells/well respectively and incubated overnight at 37° C. and 5% CO2/air. After incubation, the supernatant medium was removed and replaced with test compound dilutions in 2% DMEM (150 ul). The cells were then incubated 48 hours in a 5% CO2 incubator at 37° C.
50 μl/well of 10 uCi/ml solution of [3H]-methyl thymidine (specific activity of approx. 2 Ci/mmol) was added to the culture medium and incubated overnight (18 hours) in a 5% CO2 incubator at 37° C.
Cells were then collected onto a fiberglass filter (Printed Filtermat A 1450-421 Wallac) with a Tomtec cell harvester. Suspended cells were collected directly onto filter while for adherent cells, the medium was first removed, then the cells washed with PBS and trypsinized for 2-3 minutes (50 μl trypsin/well) before collecting.
Filters were dried for 1 hour at 37-40° C. and then placed into bags (1450-microbeta #1450-432 Wallac) with 4.5 ml of Betascint and counts obtained with Microbeta 1450 Wallac (protocol 1).
(§1) The percent of cell proliferation was determined by comparison to the control (no test compound) and thereby establishing 50% inhibitory concentration is established.

[2] = system: HSV-1; test: Herpes simplex virus plaque reduction assay in Vero34 cells; type: cell-based; details: Human alphaherpesvirus 1, 72 h, 3 days
Method: In 12 wells tissue culture dishes, 2×10^5 Vero34 cells were seeded in 2 mls of DMEM supplemented with 10% […]. The plate was incubated in 5% CO2/air at 37° C. overnight. The medium was removed and cells were inoculated with 200 PFU of HSV-1 diluted in a final volume of 0.5 ml DMEM supplemented with 2% FES. After adsorption at 37° C. for 1 hour, the viruses were removed and the cell monolayers were overlaid with 1 ml of DMEM-2% FES containing the test compound at final concentrations of 0.1, 1.0, 10, and 50 ug/ml. Acyclovir was used as a positive control. Uninfected and infected untreated monolayers were also included in the assay as controls. All compounds were tested in duplicates. After an incubation at 37° C. in 5% CO2/air for 3 days, cells were fixed with the addition of one volume of formaldehyde 8%/water for 30 min. The formaldehyde/medium was removed and the monolayers were stained with crystal violet 2%/ethanol 20% for few sec. The cells were rinsed with tap water and the monolayers were examined for the presence of plaques under a microscope.

[3] = system: RSV and CMV viruses; test: Case report: immune suppressed leukemia patient with RSV and CMV pneumonias in troxacitabine phase I study; type: in vivo, human; details: one elderly patient with relapsed resistant acute myeloid leukemia, also treated for RSV and CMV infections
Method: An elderly patient with relapsed resistant acute myeloid leukemia was entered in a troxacitabine (compound #1) as phase I Leukemia study. In the early part of the therapy, the patient, known to be immune suppressed, developed severe pneumonias. […] The patient to was maintained in the troxacitabine study and was treated for RSV and CMV viral infections.

[4] = system: HCMV; test: CMV plaque reduction assay in Hs68 cells; type: cell-based, human cytomegalovirus; details: 8 days, read-out: HCMV-1 IC50
Method: In 12-well tissue culture dishes, 1.5×10E5 or Hs68 cells (human […] fibroblast cell line) were plated per well with 2 ml of DMEM 10% fetal bovine serum and incubated in 5% CO2/air at 37° C. overnight or until cells were ready. The medium was then removed and the cells inoculated with 0.5 ml (containing 200 pfu/ml diluted in DMEM 2% FBS) of HCMV virus in each well. After adsorption at 37° C. for 2 hours, the virus was removed and cell monolayers were overlaid (1 ml) with DMEM 2% FBS containing test compounds at various concentrations. The cells were then incubated at 37° C. for 8 days, and then fixed with one volume (1 ml) of formaldehyde 8%/water or PBS 1× for 30 minutes. The formaldehyde solution was removed and the cell monolayers were stained with crystal violet 2%/EtOH 20% for a few seconds and then rinsed with water. Monolayers were examined for the presence of plaques under a microscope, the percentage of plaque reduction determined for each compound by comparison with the untreated cells (no test compound) and the 50% inhibitory concentration (IC50) established. DHPG was used as a positive control. Note: DMEM medium contained 1% glutamine and 1% pen/strep

[5] = system: Hs68 cells; test: Toxicity (CD50) reported with the CMV assay; type: cell-based, human; details: reported with HCMV assay
Method: Cells were then collected onto a fiberglass filter (Printed Filtermat A 1450-421 Wallac) with a Tomtec cell harvester.
as §1

SMILES: Nc1nc2c(ncn2COCCO)c(=O)[nH]1 [ACYCLOVIR, reference compound]
- toxicity CD50 [1]: >13.3 µM
- IC50 [2]: 13.3 µM

SMILES: Nc1ccn([C@@H]2CO[C@H](CO)O2)c(=O)n1 [COMPOUND #1, (−)-cis-2-Hydroxymethyl-4-(cytosin-1′-yl)-1,3-dioxolane]
- Clinical outcome of viral pneumonias (RSV and CMV) [3]: did recover from their pneumonias
- toxicity CD50 [1]: >50 µM
- IC50 [2]: 1.7 µM
- IC50 ([4]; Human betaherpesvirus 5, 192 h): 0.7 µM
- toxicity CD50 [5]: >50 µM

SMILES: Nc1ncn([C@@H]2CO[C@H](CO)O2)c(=O)n1 [COMPOUND #3, (−)cis-2-Hydroxymethyl-4-(5′-azacytosin-1′-yl)-1,3-Dioxolane]
- IC50 [2]: 47 to 234 µM

SMILES: Nc1nc2c(ncn2COC(CO)CO)c(=O)[nH]1 [DHPG, reference compound]
- IC50 [4]: 9.8 µM
